Where two headings read alike, the source gives them in different places. Where a SMILES comes first, the peptide text is derived from it. Bridges are numbered along the chain shown (N, C = ends). [ ]: non-standard residue; d: D form. The star is where a group is joined. hPhe(3-Cl-4-CF3) = N[C@@H](CCc1ccc(C(F)(F)F)c(Cl)c1)C(=O)O; NPrPhe(4-CF3) = CCCN[C@@H](Cc1ccc(C(F)(F)F)cc1)C(=O)O; NMeGly(cPent) = CN[C@H](C(=O)O)C1CCCC1; Pro(4,4-F2) = O=C(O)[C@@H]1CC(F)(F)CN1; NMeGly(cBu) = CN[C@H](C(=O)O)C1CCC1; NMeD = CN[C@@H](CC(=O)O)C(=O)O; Morpholide = C1CN(*)CCO1; Ac5c = NC1(C(=O)O)CCCC1; Sar = CNCC(=O)O
How the values were obtained:
[1] = target: GDP-bound KRAS wild-type protein (Homo sapiens, UniProt P01116); assay: Binding to KRAS by surface plasmon resonance (SPR), Single Cycle Kinetics; conditions: GDP-bound KRAS wild-type protein, read-out: KRAS KD
Sequence of GDP-bound KRAS wild-type protein (P01116 whole entry): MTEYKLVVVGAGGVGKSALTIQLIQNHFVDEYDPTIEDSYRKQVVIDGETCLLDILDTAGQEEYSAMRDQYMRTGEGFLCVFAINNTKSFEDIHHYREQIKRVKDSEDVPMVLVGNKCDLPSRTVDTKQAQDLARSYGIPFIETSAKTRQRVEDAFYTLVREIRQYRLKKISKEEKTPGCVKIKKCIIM

[2] = target: GDP-bound NRAS wild-type protein (Homo sapiens, UniProt P01111); assay: Binding to NRAS by surface plasmon resonance (SPR), Single Cycle Kinetics; conditions: SPR; for NRAS/KRAS (ratio of KD value for NRAS to KD value for KRAS): GDP-bound NRAS wild-type protein vs GDP-bound KRAS wild-type protein
Sequence of GDP-bound NRAS wild-type protein (P01111 whole entry): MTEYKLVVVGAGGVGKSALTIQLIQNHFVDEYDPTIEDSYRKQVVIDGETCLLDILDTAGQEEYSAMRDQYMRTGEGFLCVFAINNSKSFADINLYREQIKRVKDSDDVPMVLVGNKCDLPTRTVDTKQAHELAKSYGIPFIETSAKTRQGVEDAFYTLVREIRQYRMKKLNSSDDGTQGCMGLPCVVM

[3] = target: GDP-bound HRAS wild-type protein (Homo sapiens, UniProt P01112); assay: Binding to HRAS by surface plasmon resonance (SPR), Single Cycle Kinetics; conditions: SPR; for HRAS/KRAS (ratio of KD value for HRAS to KD value for KRAS): GDP-bound HRAS wild-type protein vs GDP-bound KRAS wild-type protein
Sequence of GDP-bound HRAS wild-type protein (P01112 whole entry): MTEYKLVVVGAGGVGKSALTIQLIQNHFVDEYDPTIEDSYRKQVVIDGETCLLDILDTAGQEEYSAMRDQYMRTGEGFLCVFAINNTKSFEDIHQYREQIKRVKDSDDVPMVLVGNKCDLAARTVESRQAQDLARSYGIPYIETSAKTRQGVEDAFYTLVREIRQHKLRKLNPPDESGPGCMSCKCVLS

Row | Compound | NRAS/KRAS (ratio of KD value for NRAS to KD value for KRAS) [2] | HRAS/KRAS (ratio of KD value for HRAS to KD value for KRAS) [3] | Kd ([1]; SPR, Single Cycle Kinetics) [nM] | other results
1 | CCO[C@@H]1C[C@H]2C(=O)NC3(CC(C)(C)C3)C(=O)N(C)[C@@H](C3CCCC3)C(=O)N3CCC[C@@H]3CC(=O)N(C)[C@@H](CC)C(=O)N[C@@H]([C@@H](C)CC)C(=O)N(C)CC(=O)N(C)[C@H]3C/C=C\CCN(C3=O)[C@@H](Cc3ccc(C(F)(F)F)cc3)C(=O)N(C)CC(=O)N[C@@H](CCc3cc(F)c(C(F)(F)F)c(F)c3)C(=O)N2C1 [PP1606] |  |  |  | Kd ([1]; SPR, Single Cycle Kinetics, 1:1 binding model): 0.37 nM; NRAS/KRAS (ratio of KD value for NRAS to KD value for KRAS) ([2]; KD ratio class): B (a compound having 3 or more and less than 10 is denoted as B); HRAS/KRAS (ratio of KD value for HRAS to KD value for KRAS) ([3]; KD ratio class): B (a compound having 3 or more and less than 10 is denoted as B)
2 | CCCN1C(=O)CN(C)C(=O)CN(C)C(=O)[C@H]([C@@H](C)CC)NC(=O)[C@H](C2CCC2)N(C)C(=O)C[C@@H](C(=O)N2CCOCC2)N(C)C(=O)[C@H](C2CCCC2)N(C)C(=O)C2(CCCC2)NC(=O)[C@@H]2CC(F)(F)CN2C(=O)[C@H](CCc2ccc(C(F)(F)F)c(Cl)c2)NC(=O)CN(C)C(=O)[C@@H]1Cc1ccc(C(F)(F)F)cc1 [PP0200] ([NMeGly(cBu)]I[Sar][Sar][NPrPhe(4-CF3)][Sar][hPhe(3-Cl-4-CF3)][Pro(4,4-F2)][Ac5c][NMeGly(cPent)][NMeD]-Morpholide; lactam N-11) | C (A compound having a KD ratio of 0.1 or more and less than 3 is denoted as C) | C (A compound having a KD ratio of 0.1 or more and less than 3 is denoted as C) |  | Kd ([1]; SPR Single Cycle Kinetics, 1:1 binding model): 0.22 nM
3 | CCO[C@@H]1C[C@H]2C(=O)NC3(CC(C)(C)C3)C(=O)N(C)[C@@H](C3CCCC3)C(=O)N(C)[C@H](C(=O)N(C)CC)CC(=O)N(C)[C@H]3CCCC/C=C/c4ccc(cc4)C[C@@H](C(=O)N(C)CC(=O)N[C@@H](CCc4ccc(C(F)(F)F)c(OC)c4)C(=O)N2C1)N1CC/C=C\C[C@@H](C1=O)N(C)C(=O)CN(C)C(=O)[C@H]([C@@H](C)CC)NC3=O [PP1830, (1S,7S,11R,13S,19S,22S,26S,29S,35S,37Z,47E)-19-cyclopentyl-11-ethoxy-N-ethyl-7-[2-[3-methoxy-4-(trifluoromethyl)phenyl]ethyl]-N,3,3′,3′,18,21,25,31,34-nonamethyl-29-[(1S)-1-methylpropyl]-2,5,8,14,17,20,24,27,30,33,55-undecaoxo-spiro[3,6,9,15,18,21,25,28,31,34,41-undecazapentacyclo[24.15.11.2^43,46.1^35,41.0^9,13]pentapentaconta-37,43(54),44,46(53),47-pentaene-16,1′-cyclobutane]-22-carboxamide] |  |  | 0.054 | NRAS/KRAS (KD ratio) ([2]; ratio of KD for GDP-bound NRAS wild-type protein to KD for KRAS): A (a compound having 10 or more and less than 20 is denoted as A); HRAS/KRAS (KD ratio) ([3]; ratio of KD for GDP-bound HRAS wild-type protein to KD for KRAS): B (a compound having 3 or more and less than 10 is denoted as B)
4 | CCO[C@@H]1C[C@H]2C(=O)NC3(CCC3)C(=O)N(C)[C@@H](C(CC)CC)C(=O)N(C)[C@H](C(=O)N3CCCCC3)CC(=O)N(C)[C@H]3CCCC/C=C/c4ccc(cc4)C[C@@H](C(=O)N(C)CC(=O)N[C@@H](CCc4ccc(Cl)c(Cl)c4)C(=O)N2C1)N1CC/C=C\C[C@@H](C1=O)N(C)C(=O)CN(C)C(=O)[C@H]([C@@H](C)CC)NC3=O [PP3046] | AA (a compound having 20 or more is denoted as AA) | A (a compound having 10 or more and less than 20 is denoted as A) | 0.39 | 
5 | CCO[C@H]1CCN2C(=O)[C@H](CCc3cc(F)c(C(F)(F)F)c(F)c3)NC(=O)CN(C)C(=O)[C@H](Cc3ccc(C(F)(F)F)cc3)N3CCCC[C@@H](C3=O)N(C)C(=O)CN(C)C(=O)[C@H]([C@@H](C)CC)NC(=O)[C@H](CC(C)C)N(C)C(=O)C[C@@H](C(=O)N3CCOCC3)N(C)C(=O)[C@H](C3CCCC3)N(C)C(=O)C3(CCC3)NC(=O)[C@H]12 [PP1076] | B (a compound having 3 or more and less than 10 is denoted as B) | B (a compound having 3 or more and less than 10 is denoted as B) | 0.068 | 
